Assay results as given in US12539292B2, “BRM targeting compounds and associated methods of use” (Arvinas Operations, Inc., priority 2018, dated 2026).

Target: T1, BRM (Homo sapiens, UniProt P51531)
T1 construct: In-Cell Western Screen of BRM Degradation in SW1573 Cells; endogenous in cells; host or cells: SW1573
Assay: In-cell Western screen of BRM degradation in SW1573 cells (Dmax and DC50)
Assay type: cell-based
Conditions: BRM degradation, SW1573 cells; for DC50: read-out: DC50
Outline: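 Overnight compound treatment (18-20 h, final DMSO 0.1%) of SW1573 cells in DMEM with 10% FBS precedes fixation and in-cell Western staining with 800/680 nm dye-labelled secondaries. Plate images give DC50 and maximal degradation.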

T1 sequence (P51531 whole entry): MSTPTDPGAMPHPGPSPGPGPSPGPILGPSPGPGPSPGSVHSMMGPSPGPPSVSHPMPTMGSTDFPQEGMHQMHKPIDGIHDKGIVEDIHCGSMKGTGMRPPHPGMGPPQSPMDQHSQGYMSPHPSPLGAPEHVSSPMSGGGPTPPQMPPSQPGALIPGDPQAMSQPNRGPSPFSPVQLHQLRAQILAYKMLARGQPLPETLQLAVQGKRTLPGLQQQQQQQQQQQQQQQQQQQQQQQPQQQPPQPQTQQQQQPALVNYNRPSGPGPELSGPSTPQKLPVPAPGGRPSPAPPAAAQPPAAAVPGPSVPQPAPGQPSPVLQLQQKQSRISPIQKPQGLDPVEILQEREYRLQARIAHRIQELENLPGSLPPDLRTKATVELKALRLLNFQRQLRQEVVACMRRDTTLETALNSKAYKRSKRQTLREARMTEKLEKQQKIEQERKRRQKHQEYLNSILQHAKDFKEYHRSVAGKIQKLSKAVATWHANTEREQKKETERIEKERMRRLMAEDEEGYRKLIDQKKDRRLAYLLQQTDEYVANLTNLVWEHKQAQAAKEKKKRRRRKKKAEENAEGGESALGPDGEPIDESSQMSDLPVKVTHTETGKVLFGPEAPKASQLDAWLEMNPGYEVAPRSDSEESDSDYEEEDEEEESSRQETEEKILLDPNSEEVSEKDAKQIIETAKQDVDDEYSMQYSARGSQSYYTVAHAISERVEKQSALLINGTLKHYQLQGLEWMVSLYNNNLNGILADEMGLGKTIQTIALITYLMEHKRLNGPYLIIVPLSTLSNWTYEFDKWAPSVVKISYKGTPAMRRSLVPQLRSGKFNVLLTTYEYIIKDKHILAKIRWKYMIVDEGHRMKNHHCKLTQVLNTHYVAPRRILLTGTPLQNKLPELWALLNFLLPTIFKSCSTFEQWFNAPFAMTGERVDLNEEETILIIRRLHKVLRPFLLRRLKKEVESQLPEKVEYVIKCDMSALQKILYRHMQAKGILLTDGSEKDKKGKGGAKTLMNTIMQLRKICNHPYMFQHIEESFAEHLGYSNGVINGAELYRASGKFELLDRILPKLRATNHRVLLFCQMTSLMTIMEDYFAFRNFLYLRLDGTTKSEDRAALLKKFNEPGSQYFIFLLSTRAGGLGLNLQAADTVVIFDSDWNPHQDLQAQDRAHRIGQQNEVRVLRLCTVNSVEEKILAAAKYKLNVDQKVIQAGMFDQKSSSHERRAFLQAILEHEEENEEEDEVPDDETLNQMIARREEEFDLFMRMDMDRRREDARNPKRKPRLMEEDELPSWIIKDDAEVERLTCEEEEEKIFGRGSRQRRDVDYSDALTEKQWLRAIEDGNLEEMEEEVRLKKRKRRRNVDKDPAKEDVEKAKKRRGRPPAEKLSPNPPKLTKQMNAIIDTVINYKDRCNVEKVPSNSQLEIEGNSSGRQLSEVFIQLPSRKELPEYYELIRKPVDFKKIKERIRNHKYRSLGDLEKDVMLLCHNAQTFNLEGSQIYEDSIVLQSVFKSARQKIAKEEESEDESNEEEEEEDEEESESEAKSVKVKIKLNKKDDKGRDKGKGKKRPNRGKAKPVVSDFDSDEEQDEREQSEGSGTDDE

Compound | DC50 | Dmax (read-out: Dmax (% degraded)) | Dmax (%) (% degraded) (when tested at the top concentration of between 0.3 and 10 μM)
Cc1ncsc1-c1ccc([C@H](C)NC(=O)[C@@H]2C[C@@H](O)CN2C(=O)[C@@H](c2cc(N3CCC(CN4CCC(O[C@H]5C[C@H](Oc6cc(N7CCOC8(CCN(c9cc(-c%10ccccc%10O)nnc9N)CC8)C7)ccn6)C5)CC4)CC3)no2)C(C)C)cc1 [compound 716, (2S,4R)-1-((R)-2-(3-(4-((4-((1r,3r)-3-((4-(9-(3-amino-6-(2-hydroxyphenyl)pyridazin-4-yl)-1-oxa-4,9-diazaspiro[5.5]undecan-4-yl)pyridin-2-yl)oxy)cyclobutoxy)piperidin-1-yl)methyl)piperidin-1-yl)isoxazol-5-yl)-3-methylbutanoyl)-4-hydroxy-N-((S)-1-(4-(4-methylthiazol-5-yl)phenyl)ethyl)pyrrolidine-2-carboxamide] | < 2.5 nM | > 75% | –
(2S,4R)-1-((2R)-2-(3-(2-(4-((1r,3R)- 3-((4-(3-(3-amino-6-(2- hydroxyphenyl)pyridazin-4-yl)-3,8- diazabicyclo[3.2.1]octan-8- yl)pyridin-2- yl)oxy)cyclobutoxy)piperidin-1- yl)ethoxy)isoxazol-5-yl)-3- methylbutanoyl)-4-hydroxy-N-(4-(4- methylthiazol-5- yl)benzyl)pyrrolidine-2-carboxamide [compound 146] | < 2.5 nM | – | A (A > 75)
